In patent US20070189984A1, “Agents for use on skin and/or hair containing quadruply substituted cyclohexene compounds” (BEIERSDORF AF,, priority 2003, published 2007):

System: primary normal human melanocytes
Assay: melanogenesis assay (C14-tyrosine incorporation)
Format: cell-based
Details: incubation for 3 days, average, n=3
Description: By way of example, the test for the compound 6-methyl-8-(2,6,6-trimethylcyclohex-1-en-1-yl)octa-3,5-dien-2-one is given.
A melanogenesis assay was carried out after incubation for 3 days of primary normal human melanocytes with test substance compared to control. The numbers given in the table indicate the melanogenesis rates based on the untreated control (=100%) (measured as C14-tyrosine incorporation).

`CC(=O)/C=C/C=C(\C)CCC1=C(C)CCCC1(C)C` [(3E,5E)-6-methyl-8-(2,6,6-trimethylcyclohex-1-en-1-yl)octa-3,5-dien-2-one] was tested. Which “melanogenesis rate based on the untreated control (=100%), measured as C14-tyrosine incorporation” value (0.1 μg/ml test substance) did it give?
The value was 127%.

What about the “melanogenesis rate based on the untreated control (=100%), measured as C14-tyrosine incorporation” value (1 μg/ml test substance) of the same compound?
Its value is 157%.
